Test results as given in doi:10.1101/2022.02.10.480023v1 (biorxiv, 2022).

Target: T1, AbDHDPS (Acinetobacter baumannii, UniProt D0CFC3)
T1 sequence (D0CFC3 1-297): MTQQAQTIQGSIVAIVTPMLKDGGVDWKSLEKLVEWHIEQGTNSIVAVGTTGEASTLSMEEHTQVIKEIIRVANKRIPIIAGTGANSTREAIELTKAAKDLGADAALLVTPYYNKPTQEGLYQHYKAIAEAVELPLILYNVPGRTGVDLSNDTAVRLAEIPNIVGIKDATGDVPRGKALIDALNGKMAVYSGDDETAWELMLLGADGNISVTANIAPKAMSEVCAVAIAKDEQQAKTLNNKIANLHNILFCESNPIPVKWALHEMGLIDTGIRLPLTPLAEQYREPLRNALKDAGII
Experiment: DHDPS-DHDPR coupled assay, NADPH oxidation at […] nm
Assay type: biochemical

IC50: 35 µM
SMILES: CS(=O)(=O)NNc1ccccc1 [N’-phenylmethanesulfonohydrazide]
